Test [1] concerns the target Transcriptional enhancer factor TEF-4 (Homo sapiens) (UniProt Q15562). Briefly: Thermal stabilization of C-terminal human TEAD2 (217 to 447 residues) assessed as change in melting temperature by thermal shift assay.
Test [2] has as its target Transcriptional enhancer factor TEF-1 (Homo sapiens) (UniProt P28347). Briefly: Binding affinity to recombinant TEAD1 (unknown origin) assessed as increase in thermal stability by thermal shift assay.
Test [3] deals with Transcriptional enhancer factor TEF-4 (Homo sapiens) (UniProt Q15562). Description: Binding affinity to recombinant TEAD2 (unknown origin) assessed as increase in thermal stability by thermal shift assay.
Transcriptional enhancer factor TEF-4 (Homo sapiens), sequence (Q15562 whole entry, the tested form may be a part): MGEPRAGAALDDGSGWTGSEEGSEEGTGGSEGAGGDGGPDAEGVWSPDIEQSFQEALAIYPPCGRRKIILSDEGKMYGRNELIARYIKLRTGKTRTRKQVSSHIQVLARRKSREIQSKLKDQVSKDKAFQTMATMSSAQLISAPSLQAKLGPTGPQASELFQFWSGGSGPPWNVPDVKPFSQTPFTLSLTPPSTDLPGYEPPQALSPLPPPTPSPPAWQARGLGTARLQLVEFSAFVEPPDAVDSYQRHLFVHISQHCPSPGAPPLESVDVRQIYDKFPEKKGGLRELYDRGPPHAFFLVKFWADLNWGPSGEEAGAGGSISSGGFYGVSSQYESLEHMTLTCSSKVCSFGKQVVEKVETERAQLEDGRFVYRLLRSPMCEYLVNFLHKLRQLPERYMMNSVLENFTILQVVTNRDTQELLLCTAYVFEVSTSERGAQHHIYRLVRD

Transcriptional enhancer factor TEF-1 (Homo sapiens), sequence (P28347 whole entry): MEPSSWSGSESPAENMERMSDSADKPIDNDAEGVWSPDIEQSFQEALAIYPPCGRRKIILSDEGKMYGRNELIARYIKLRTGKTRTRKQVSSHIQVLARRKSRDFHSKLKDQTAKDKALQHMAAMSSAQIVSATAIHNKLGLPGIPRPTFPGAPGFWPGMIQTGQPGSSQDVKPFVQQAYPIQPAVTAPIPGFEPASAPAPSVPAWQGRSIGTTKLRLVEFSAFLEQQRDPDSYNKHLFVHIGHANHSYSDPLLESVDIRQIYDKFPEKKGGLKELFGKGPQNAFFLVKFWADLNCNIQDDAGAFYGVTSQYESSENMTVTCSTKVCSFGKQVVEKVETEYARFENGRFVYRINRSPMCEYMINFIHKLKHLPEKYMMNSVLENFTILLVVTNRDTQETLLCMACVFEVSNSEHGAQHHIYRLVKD

Regarding `Nc1cccc(-c2cc[nH]n2)c1`, the ΔTm in test [1] worked out at 0.95 °C.
Regarding `CNS(=O)(=O)c1ccc(Nc2ccc(C(F)(F)F)cc2)c(-c2cn(C)cn2)c1`, the results for the deltaT in test [2] and in test [3] were 8.3 °C and 4.2 °C, respectively.

The ΔTm is the shift of the melting midpoint relative to a reference.

For the origin of these results see ChEMBL document CHEMBL5104107, “Toward the Design of Ligands Selective for the C-Terminal Domain of TEADs” (J Med Chem, 2022).
